Data taken from US9859508B2, “Condensed polycyclic aromatic compound and use thereof” (Nippon Kayaku Kabushiki Kaisha, priority 2013, dated 2018).

Key:
[1] = Cyclic voltammetry (CV) in dichloromethane; format: physicochemical; details: n-BuN4PF6 0.1 M, silver/silver chloride reference electrode, 100 mV/sec
Description: (3) Measurement of CV (Cyclic Voltammetry)
CV was measured using dichloromethane as a solvent, tetrabutylammonium hexafluorophosphate (n-BuN4PF6, 0.1 M) as a supporting salt, platinum wires as a working electrode and a counter electrode, and a silver/sliver chloride electrode as a reference electrode, and sweeping the electric potential at a rate of 100 mV/sec.

[2] = Solubility to chloroform (saturated chloroform solutions); format: physicochemical; details: mass percent concentration of saturated chloroform solution
Description: (1) Measurement of Solubility
Solubility was measured using chloroform as a solvent.

## CCCCCCCCCCCCCCCCc1cc2c(cc(CCCCCCCCCCCCCCCC)c3cc(=C(C#N)C#N)sc32)c2sc(=C(C#N)C#N)cc12 [Compound 114]
[1]
  first half-wave reduction potential: 0.15 V
  second half-wave reduction potential: −0.14 V

## CCCCC(CC)Cc1cc2c(cc(CC(CC)CCCC)c3cc(=C(C#N)C#N)sc32)c2sc(=C(C#N)C#N)cc12 (stereo not shown) [Compound 119]
[1]
  first half-wave reduction potential: 0.15 V
  second half-wave reduction potential: −0.14 V
[2]
  Solubility to Chloroform: 0.53 w/w %

## CCCCCCCCc1cc2c(cc(CCCCCCCC)c3cc(=C(C#N)C#N)sc32)c2sc(=C(C#N)C#N)cc12 [Compound 110]
[1]
  first half-wave reduction potential: 0.15 V
  second half-wave reduction potential: −0.14 V

## CCCCCCCCCCCCc1cc2c(cc(CCCCCCCCCCCC)c3cc(=C(C#N)C#N)sc32)c2sc(=C(C#N)C#N)cc12 [Compound 112]
[1]
  first half-wave reduction potential: 0.15 V
  second half-wave reduction potential: −0.14 V
[2]
  Solubility to Chloroform: 0.20 w/w %
